#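 Dose response: 5 concentrations. Exposure: 48 h. Format: 96-well plates. Endpoint: linear interpolation; highest concentration if not reached. GI50: concentration for 50% inhibition of growth. TGI: total growth inhibition.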
# Columns and labels:
# Assay in all cases: DTP human tumour cell line panel, 48 h
# 786-0 renal = test system: 786-0 renal
# A498 renal = test system: A498 renal
# A549 NSCLC = test system: A549 NSCLC
# ACHN renal = test system: ACHN renal
# BT-549 breast = test system: BT-549 breast
# CAKI-1 renal = test system: CAKI-1 renal
# CCRF-CEM leukemia = test system: CCRF-CEM leukemia
# COLO 205 colon = test system: COLO 205 colon
# DU-145 prostate = test system: DU-145 prostate
# EKVX NSCLC = test system: EKVX NSCLC
# HCT-116 colon = test system: HCT-116 colon
# HCT-15 colon = test system: HCT-15 colon
# HL-60(TB) leukemia = test system: HL-60(TB) leukemia
# HOP-62 NSCLC = test system: HOP-62 NSCLC
# HOP-92 NSCLC = test system: HOP-92 NSCLC
# HS 578T breast = test system: HS 578T breast
# HT29 colon = test system: HT29 colon
# IGROV1 ovarian = test system: IGROV1 ovarian
# K-562 leukemia = test system: K-562 leukemia
# KM12 colon = test system: KM12 colon
# LOX IMVI melanoma = test system: LOX IMVI melanoma
# M14 melanoma = test system: M14 melanoma
# MALME-3M melanoma = test system: MALME-3M melanoma
# MCF7 breast = test system: MCF7 breast
# MDA-MB-231 breast = test system: MDA-MB-231 breast
# MDA-MB-435 = test system: MDA-MB-435
# MDA-N = test system: MDA-N
# MOLT-4 leukemia = test system: MOLT-4 leukemia
# NCI-H226 lung = test system: NCI-H226 lung
# NCI-H23 lung = test system: NCI-H23 lung
# NCI-H460 lung = test system: NCI-H460 lung
# NCI-H522 lung = test system: NCI-H522 lung
# NCI/ADR-RES ovarian = test system: NCI/ADR-RES ovarian
# OVCAR-3 ovarian = test system: OVCAR-3 ovarian
# OVCAR-4 ovarian = test system: OVCAR-4 ovarian
# OVCAR-5 ovarian = test system: OVCAR-5 ovarian
# OVCAR-8 ovarian = test system: OVCAR-8 ovarian
# PC-3 prostate = test system: PC-3 prostate
# RPMI-8226 leukemia = test system: RPMI-8226 leukemia
# RXF 393 renal = test system: RXF 393 renal
# SF-268 CNS = test system: SF-268 CNS
# SF-295 CNS = test system: SF-295 CNS
# SF-539 CNS = test system: SF-539 CNS
# SK-MEL-2 melanoma = test system: SK-MEL-2 melanoma
# SK-MEL-28 melanoma = test system: SK-MEL-28 melanoma
# SK-MEL-5 melanoma = test system: SK-MEL-5 melanoma
# SK-OV-3 ovarian = test system: SK-OV-3 ovarian
# SN12C renal = test system: SN12C renal
# SNB-19 CNS = test system: SNB-19 CNS
# SNB-75 CNS = test system: SNB-75 CNS
# SR leukemia = test system: SR leukemia
# SW-620 colon = test system: SW-620 colon
# TK-10 renal = test system: TK-10 renal
# U251 CNS = test system: U251 CNS
# UACC-257 melanoma = test system: UACC-257 melanoma
# UACC-62 melanoma = test system: UACC-62 melanoma
# UO-31 renal = test system: UO-31 renal
# HCC-2998 colon = test system: HCC-2998 colon
compound,measurement,setting,value
COc1ccc(C[N+](C)(C)N)cc1OC,GI50,786-0 renal,> 100 µM
same,TGI,786-0 renal,> 100 µM
same,TGI,A498 renal,> 100 µM
same,GI50,A549 NSCLC,> 100 µM
same,TGI,A549 NSCLC,> 100 µM
same,GI50,ACHN renal,> 100 µM
same,TGI,ACHN renal,> 100 µM
same,GI50,BT-549 breast,> 100 µM
same,TGI,BT-549 breast,> 100 µM
same,GI50,CAKI-1 renal,> 100 µM
same,TGI,CAKI-1 renal,> 100 µM
same,GI50,CCRF-CEM leukemia,> 100 µM
same,TGI,CCRF-CEM leukemia,> 100 µM
same,GI50,COLO 205 colon,> 100 µM
same,TGI,COLO 205 colon,> 100 µM
same,GI50,DU-145 prostate,> 100 µM
same,TGI,DU-145 prostate,> 100 µM
same,TGI,EKVX NSCLC,> 100 µM
same,GI50,HCT-116 colon,> 100 µM
same,TGI,HCT-116 colon,> 100 µM
same,GI50,HCT-15 colon,> 100 µM
same,TGI,HCT-15 colon,> 100 µM
same,GI50,HL-60(TB) leukemia,> 100 µM
same,TGI,HL-60(TB) leukemia,> 100 µM
same,GI50,HOP-62 NSCLC,> 100 µM
same,TGI,HOP-62 NSCLC,> 100 µM
same,GI50,HOP-92 NSCLC,> 100 µM
same,TGI,HOP-92 NSCLC,> 100 µM
same,GI50,HS 578T breast,> 100 µM
same,TGI,HS 578T breast,> 100 µM
same,GI50,HT29 colon,> 100 µM
same,TGI,HT29 colon,> 100 µM
same,TGI,IGROV1 ovarian,> 100 µM
same,TGI,K-562 leukemia,> 100 µM
same,GI50,KM12 colon,> 100 µM
same,TGI,KM12 colon,> 100 µM
same,GI50,LOX IMVI melanoma,> 100 µM
same,TGI,LOX IMVI melanoma,> 100 µM
same,GI50,M14 melanoma,> 100 µM
same,TGI,M14 melanoma,> 100 µM
same,GI50,MALME-3M melanoma,> 100 µM
same,TGI,MALME-3M melanoma,> 100 µM
same,GI50,MCF7 breast,> 100 µM
same,TGI,MCF7 breast,> 100 µM
same,GI50,MDA-MB-231 breast,> 100 µM
same,TGI,MDA-MB-231 breast,> 100 µM
same,GI50,MDA-MB-435,> 100 µM
same,TGI,MDA-MB-435,> 100 µM
same,GI50,MDA-N,> 100 µM
same,TGI,MDA-N,> 100 µM
same,GI50,MOLT-4 leukemia,> 100 µM
same,TGI,MOLT-4 leukemia,> 100 µM
same,TGI,NCI-H226 lung,> 100 µM
same,GI50,NCI-H23 lung,> 100 µM
same,TGI,NCI-H23 lung,> 100 µM
same,TGI,NCI-H460 lung,> 100 µM
same,GI50,NCI-H522 lung,> 100 µM
same,TGI,NCI-H522 lung,> 100 µM
same,GI50,NCI/ADR-RES ovarian,> 100 µM
same,TGI,NCI/ADR-RES ovarian,> 100 µM
same,GI50,OVCAR-3 ovarian,> 100 µM
same,TGI,OVCAR-3 ovarian,> 100 µM
same,GI50,OVCAR-4 ovarian,> 100 µM
same,TGI,OVCAR-4 ovarian,> 100 µM
same,GI50,OVCAR-5 ovarian,> 100 µM
same,TGI,OVCAR-5 ovarian,> 100 µM
same,GI50,OVCAR-8 ovarian,> 100 µM
same,TGI,OVCAR-8 ovarian,> 100 µM
same,GI50,PC-3 prostate,> 100 µM
same,TGI,PC-3 prostate,> 100 µM
same,GI50,RPMI-8226 leukemia,> 100 µM
same,TGI,RPMI-8226 leukemia,> 100 µM
same,TGI,RXF 393 renal,> 100 µM
same,GI50,SF-268 CNS,> 100 µM
same,TGI,SF-268 CNS,> 100 µM
same,GI50,SF-295 CNS,> 100 µM
same,TGI,SF-295 CNS,> 100 µM
same,GI50,SF-539 CNS,> 100 µM
same,TGI,SF-539 CNS,> 100 µM
same,TGI,SK-MEL-2 melanoma,> 100 µM
same,GI50,SK-MEL-28 melanoma,> 100 µM
same,TGI,SK-MEL-28 melanoma,> 100 µM
same,GI50,SK-MEL-5 melanoma,> 100 µM
same,TGI,SK-MEL-5 melanoma,> 100 µM
same,GI50,SK-OV-3 ovarian,> 100 µM
same,TGI,SK-OV-3 ovarian,> 100 µM
same,GI50,SN12C renal,> 100 µM
same,TGI,SN12C renal,> 100 µM
same,GI50,SNB-19 CNS,> 100 µM
same,TGI,SNB-19 CNS,> 100 µM
same,GI50,SNB-75 CNS,> 100 µM
same,TGI,SNB-75 CNS,> 100 µM
same,GI50,SR leukemia,> 100 µM
same,TGI,SR leukemia,> 100 µM
same,GI50,SW-620 colon,> 100 µM
same,TGI,SW-620 colon,> 100 µM
same,GI50,TK-10 renal,> 100 µM
same,TGI,TK-10 renal,> 100 µM
same,GI50,U251 CNS,> 100 µM
same,TGI,U251 CNS,> 100 µM
same,GI50,UACC-257 melanoma,> 100 µM
same,TGI,UACC-257 melanoma,> 100 µM
same,TGI,UACC-62 melanoma,> 100 µM
same,TGI,UO-31 renal,> 100 µM
Cn1c([C@H](C#N)c2ncccc2[N+](=O)[O-])nc2ccccc21,TGI,786-0 renal,> 100 µM
same,TGI,A498 renal,> 100 µM
same,TGI,A549 NSCLC,> 100 µM
same,TGI,ACHN renal,> 100 µM
same,TGI,BT-549 breast,> 100 µM
same,TGI,CAKI-1 renal,> 100 µM
same,TGI,CCRF-CEM leukemia,> 100 µM
same,TGI,EKVX NSCLC,> 100 µM
same,TGI,HCC-2998 colon,> 100 µM
same,TGI,HCT-116 colon,> 100 µM
same,TGI,HCT-15 colon,> 100 µM
same,TGI,HL-60(TB) leukemia,> 100 µM
same,TGI,HOP-62 NSCLC,67.6 µM
same,TGI,HOP-92 NSCLC,> 100 µM
same,TGI,HS 578T breast,75.1 µM
same,TGI,HT29 colon,> 100 µM
same,TGI,K-562 leukemia,> 100 µM
same,TGI,KM12 colon,> 100 µM
same,TGI,LOX IMVI melanoma,> 100 µM
same,TGI,M14 melanoma,> 100 µM
same,TGI,MALME-3M melanoma,> 100 µM
same,TGI,MCF7 breast,> 100 µM
same,TGI,MDA-MB-231 breast,> 100 µM
same,TGI,MDA-MB-435,> 100 µM
same,TGI,MDA-N,> 100 µM
same,TGI,MOLT-4 leukemia,> 100 µM
same,TGI,NCI-H226 lung,> 100 µM
same,TGI,NCI-H23 lung,> 100 µM
same,TGI,NCI-H460 lung,> 100 µM
same,TGI,NCI-H522 lung,38.3 µM
same,TGI,NCI/ADR-RES ovarian,> 100 µM
same,TGI,OVCAR-3 ovarian,> 100 µM
same,TGI,OVCAR-5 ovarian,> 100 µM
same,TGI,OVCAR-8 ovarian,> 100 µM
same,TGI,PC-3 prostate,> 100 µM
same,TGI,RPMI-8226 leukemia,> 100 µM
same,TGI,RXF 393 renal,97.7 µM
same,TGI,SF-268 CNS,> 100 µM
same,TGI,SF-295 CNS,> 100 µM
same,TGI,SF-539 CNS,95.4 µM
same,TGI,SK-MEL-2 melanoma,> 100 µM
same,TGI,SK-MEL-28 melanoma,> 100 µM
same,TGI,SK-OV-3 ovarian,> 100 µM
same,TGI,SNB-19 CNS,> 100 µM
same,TGI,SNB-75 CNS,67.1 µM
same,TGI,SR leukemia,> 100 µM
same,TGI,SW-620 colon,> 100 µM
same,TGI,TK-10 renal,> 100 µM
same,TGI,U251 CNS,> 100 µM
same,TGI,UACC-257 melanoma,> 100 µM
same,TGI,UACC-62 melanoma,> 100 µM
same,TGI,UO-31 renal,> 100 µM

# Source: PubChem BioAssay (NCI)
